{"source": "paper PMC11674187", "about": "“Inhibitory Effects of Cenobamate on Multiple Human Cardiac Ion Channels and Possible Arrhythmogenic Consequences” (Biomolecules, 2024)", "key": {"[1]": {"parameters": "method as in PMID 33031714", "conditions": "adults with focal onset seizures; ref [2]; cited from earlier work"}, "IKr (hERG)": {"test_system": "IKr (hERG)", "conditions": "read-out: apparent IC50 for IKr (hERG); used for further computations; ref [5] p. 10; cited from earlier work"}, "neuronal Na+ channels": {"test_system": "neuronal Na+ channels", "parameters": "method as in PMID 33993416", "conditions": "ref [6]; read-out: IC50 on late (persistent) neuronal Na+ current; cited from earlier work"}, "hNav1.5": {"molecular_target": "T1, hNav1.5 (Homo sapiens, UniProt Q14524)", "T1 construct": "host or cells: HEK293T", "T1 sequence (Q14524 whole entry, canonical isoform)": "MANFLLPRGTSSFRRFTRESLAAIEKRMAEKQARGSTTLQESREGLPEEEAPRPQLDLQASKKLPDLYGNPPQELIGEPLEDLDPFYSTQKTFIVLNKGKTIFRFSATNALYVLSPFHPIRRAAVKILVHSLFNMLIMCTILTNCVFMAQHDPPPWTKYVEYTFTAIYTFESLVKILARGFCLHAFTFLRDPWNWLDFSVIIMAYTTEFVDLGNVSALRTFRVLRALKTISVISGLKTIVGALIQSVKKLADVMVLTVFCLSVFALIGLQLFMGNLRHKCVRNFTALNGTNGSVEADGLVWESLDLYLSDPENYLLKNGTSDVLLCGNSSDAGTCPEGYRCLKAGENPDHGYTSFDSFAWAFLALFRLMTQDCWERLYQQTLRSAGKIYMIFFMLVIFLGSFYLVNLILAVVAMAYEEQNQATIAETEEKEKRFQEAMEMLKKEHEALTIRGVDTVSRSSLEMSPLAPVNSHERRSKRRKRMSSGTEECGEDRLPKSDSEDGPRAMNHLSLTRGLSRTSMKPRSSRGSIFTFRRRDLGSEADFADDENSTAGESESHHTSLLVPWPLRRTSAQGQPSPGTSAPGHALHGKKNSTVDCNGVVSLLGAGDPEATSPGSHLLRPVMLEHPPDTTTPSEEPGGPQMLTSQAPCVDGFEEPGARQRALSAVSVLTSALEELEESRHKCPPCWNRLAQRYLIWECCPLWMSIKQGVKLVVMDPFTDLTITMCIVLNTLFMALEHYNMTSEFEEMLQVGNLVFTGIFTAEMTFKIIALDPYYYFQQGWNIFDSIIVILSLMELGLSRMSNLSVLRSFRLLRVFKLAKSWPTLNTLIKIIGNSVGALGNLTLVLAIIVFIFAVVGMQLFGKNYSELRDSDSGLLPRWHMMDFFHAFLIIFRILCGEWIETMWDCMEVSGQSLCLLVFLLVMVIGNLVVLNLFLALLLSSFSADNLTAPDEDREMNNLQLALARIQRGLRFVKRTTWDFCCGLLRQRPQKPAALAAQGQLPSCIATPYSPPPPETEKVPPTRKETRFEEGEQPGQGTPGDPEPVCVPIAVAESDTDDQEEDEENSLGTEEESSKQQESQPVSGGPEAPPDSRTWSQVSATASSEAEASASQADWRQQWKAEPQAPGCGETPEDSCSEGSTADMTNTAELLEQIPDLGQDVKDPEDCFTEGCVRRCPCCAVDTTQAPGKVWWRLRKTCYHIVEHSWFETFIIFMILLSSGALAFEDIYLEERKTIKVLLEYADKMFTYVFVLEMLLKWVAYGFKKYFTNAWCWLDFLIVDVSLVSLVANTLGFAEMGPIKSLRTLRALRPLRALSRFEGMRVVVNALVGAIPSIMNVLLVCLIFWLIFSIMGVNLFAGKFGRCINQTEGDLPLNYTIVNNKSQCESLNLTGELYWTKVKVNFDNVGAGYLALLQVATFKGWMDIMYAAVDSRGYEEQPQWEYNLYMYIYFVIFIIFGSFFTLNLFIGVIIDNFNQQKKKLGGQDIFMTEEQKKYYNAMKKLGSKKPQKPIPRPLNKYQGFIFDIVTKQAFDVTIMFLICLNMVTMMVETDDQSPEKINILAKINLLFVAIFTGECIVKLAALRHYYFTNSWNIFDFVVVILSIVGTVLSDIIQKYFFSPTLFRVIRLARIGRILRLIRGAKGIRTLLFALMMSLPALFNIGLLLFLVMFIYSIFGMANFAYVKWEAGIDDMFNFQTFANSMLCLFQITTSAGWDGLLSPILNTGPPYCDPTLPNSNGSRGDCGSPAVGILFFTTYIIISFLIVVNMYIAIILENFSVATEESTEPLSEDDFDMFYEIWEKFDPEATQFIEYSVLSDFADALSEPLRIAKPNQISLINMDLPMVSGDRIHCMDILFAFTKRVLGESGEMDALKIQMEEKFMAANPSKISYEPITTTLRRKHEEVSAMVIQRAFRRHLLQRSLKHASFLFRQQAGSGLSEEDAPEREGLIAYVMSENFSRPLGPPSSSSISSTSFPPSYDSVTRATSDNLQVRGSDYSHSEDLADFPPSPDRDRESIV", "experiment": "Whole-cell patch-clamp on HEK293T cells, peak INa (standard, activation and inactivation protocols)", "assay_type": "cell-based", "protocol": "(§1) Experiments were performed on HEK293T cell lines with persistent/inducible expression of different human cardiac ion channel isoforms: hNav1.5 and hKv7.1 + minK (Anaxon AG, Bern, Switzerland), hCav1.2 (α1c + β2 + α2δ1) (B’SYS GmbH, Witterswil, Switzerland), and hKv11.1 (hERG) (Cytocentrics Bioscience GmbH, Rostock, Germany). The cell lines were grown in standard conditions (37 °C, 5% CO2, 90% humidity) in DMEM:F12 medium (D8900, Sigma-Aldrich, Burlington, MA, USA) buffered with 15 mM HEPES, containing 3.15 g/L D-glucose and 0.055 g/L sodium pyruvate, supplemented with 1.2 g/L sodium bicarbonate, 10% fetal bovine serum (F2442, Sigma-Aldrich, Burlington, MA, USA), 2 mM L-glutamine (G7513, Sigma-Aldrich, Burlington, MA, USA), 1% penicillin–streptomycin (P4333, Sigma-Aldrich, Burlington, MA, USA), and with specific antibiotics for selection of transfected cells or induction of gene expression according to manufacturers’ instructions. The medium was changed every 2–3 days and the cells were passed weekly upon detachment with trypsin–EDTA solution. All cell culture media and solutions were sterile filtered with 0.22 μm polyvinylidene fluoride filters. Ncyte® vCardiomyocytes (Ncardia, Leiden, The Netherlands) were cultured in 24-well plates precoated with bovine fibronectin, following manufacturer’s instructions. For the experiments, cardiomyocytes were detached as described previously and plated on ϕ 10 mm glass coverslips, like the other cell lines.\n(§2) Manual whole-cell patch-clamp experiments were performed at room temperature, with equipment as described in previous studies. Pipettes were pulled from Clark borosilicate glass capillaries with inner filament (GC150F-10, Harvard Apparatus, Holliston, MA, USA) and had typical resistances of 2–3 MΩ. Recordings were performed with a WPC-100 resistive feedback amplifier (ESF electronic, Göttingen, Germany) or an Axopatch 200B amplifier (Axon Instruments—Molecular Devices, San Jose, CA, USA) connected to a Digidata 1322A interface driven by the pClamp 8.2 Clampex module (Axon Instruments, part of Molecular Devices, San Jose, CA, USA). For different types of ion channel, we applied specific voltage-clamp protocols as follows: • - For hERG, a standard two-step activation protocol was used: holding at −70 mV, a 100 ms step at −50 mV used as current reference for measurements, a 2 s depolarizing step at +40 mV, followed by a 2 s step at −50 mV to elicit the peak hERG current by rapid recovery from inactivation, repeated sweeps at 10 s intervals, plus specific protocols to assess the voltage dependence of activation and inactivation, as described in Thomet et al., 2021 [11]. • - For hKv7.1 + minK, a general two-step activation protocol was used: holding at −110 mV, a 250 ms step at −80 mV with a brief (50 ms) step at −90 mV at the middle to monitor seal quality, a 3000 ms depolarizing step at +60 mV, followed by a 1000 ms step at −50 mV; repeated sweeps at 20 s intervals. • - For hCav1.2, a pharmacology protocol with holding at −80 mV, a first 100 ms step at −50 mV and a second 200 ms step at 0 mV, repeated sweeps at 20 s intervals with drug application after 5 sweeps if current levels were steady, plus an activation–inactivation protocol with holding at −80 mV, 1000 ms depolarizing steps from −80 to +50 mV in 10 mV increments, followed by 250 ms steps at +10 mV and a return to −80 mV; 14 sweeps at 20 s intervals. • - For hNav1.5, multiple voltage protocols were used, including the following: • - A standard pharmacology protocol with holding at −90 mV, a 20 ms step at −110 mV for seal monitoring, a 40 ms activation step at −10 mV, and repeated sweeps at 1 s intervals. […]"}, "hKv11.1 (hERG), IKr": {"molecular_target": "T2, hKv11.1 (hERG), IKr (Homo sapiens, UniProt Q12809)", "T2 construct": "host or cells: HEK293T", "T2 sequence (Q12809 whole entry)": "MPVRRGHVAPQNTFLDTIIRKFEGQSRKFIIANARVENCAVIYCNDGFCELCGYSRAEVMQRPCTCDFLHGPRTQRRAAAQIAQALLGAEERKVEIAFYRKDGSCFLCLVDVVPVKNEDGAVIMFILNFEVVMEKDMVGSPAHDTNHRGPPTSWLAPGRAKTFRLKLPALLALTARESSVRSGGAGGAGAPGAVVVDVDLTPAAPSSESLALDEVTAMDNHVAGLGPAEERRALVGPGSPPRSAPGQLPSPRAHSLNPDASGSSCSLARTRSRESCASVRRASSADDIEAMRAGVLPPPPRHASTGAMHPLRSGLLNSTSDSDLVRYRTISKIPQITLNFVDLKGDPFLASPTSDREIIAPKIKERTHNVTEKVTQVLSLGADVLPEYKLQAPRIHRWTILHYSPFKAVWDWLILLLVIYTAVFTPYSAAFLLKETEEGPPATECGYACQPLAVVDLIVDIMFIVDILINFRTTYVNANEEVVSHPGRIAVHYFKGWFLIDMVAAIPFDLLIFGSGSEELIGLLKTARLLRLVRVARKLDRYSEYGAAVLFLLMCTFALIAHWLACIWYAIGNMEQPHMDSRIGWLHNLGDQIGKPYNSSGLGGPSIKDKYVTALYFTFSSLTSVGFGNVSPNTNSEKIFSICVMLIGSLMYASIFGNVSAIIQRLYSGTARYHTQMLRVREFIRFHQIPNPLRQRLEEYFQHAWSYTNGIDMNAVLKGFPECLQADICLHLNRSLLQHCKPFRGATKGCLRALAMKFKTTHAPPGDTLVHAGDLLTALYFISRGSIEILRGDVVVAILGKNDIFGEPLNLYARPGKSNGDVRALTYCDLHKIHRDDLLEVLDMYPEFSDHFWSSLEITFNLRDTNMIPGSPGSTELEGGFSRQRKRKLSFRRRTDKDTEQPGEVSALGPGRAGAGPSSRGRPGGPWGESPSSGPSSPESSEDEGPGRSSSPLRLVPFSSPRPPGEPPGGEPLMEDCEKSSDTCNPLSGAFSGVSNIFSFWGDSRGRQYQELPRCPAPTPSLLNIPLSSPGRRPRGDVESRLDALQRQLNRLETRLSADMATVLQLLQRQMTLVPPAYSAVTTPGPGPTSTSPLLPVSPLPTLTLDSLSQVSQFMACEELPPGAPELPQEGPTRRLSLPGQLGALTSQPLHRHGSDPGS", "experiment": "Whole-cell patch-clamp on HEK293T cells, IKr", "assay_type": "cell-based", "conditions": "human, HEK293T cells expressing hKv11.1 (hERG); for inhibition at 200 µM: pH 7.4, cenobamate 200 µM", "protocol": "as §1, §2"}, "hKv11.1 (hERG)": {"molecular_target": "T3, hKv11.1 (hERG) (Homo sapiens, UniProt Q12809)", "T3 construct": "host or cells: HEK293T", "T3 sequence (Q12809 whole entry)": "as above", "experiment": "Whole-cell patch-clamp on HEK293T cells, IKr", "assay_type": "cell-based", "protocol": "as §1, §2"}, "[2]": {"conditions": "mouse; ref [5] p.10; cited from earlier work"}, "[3]": {"molecular_target": "T4, hCav1.2 (α1c + β2 + α2δ1) (Homo sapiens, UniProt Q13936)", "T4 construct": "host or cells: HEK293T", "experiment": "Whole-cell patch-clamp on HEK293T cells, ICaL", "assay_type": "cell-based", "protocol": "as §1, §2"}}, "note": "Where “and” joins values, the source holds several entries; their conditions need not be identical. Equal values may be shown once. Read-outs that look alike come from different tables or passages of the source."}
{"smiles": "NC(=O)O[C@@H](Cn1ncnn1)c1ccccc1Cl", "note": "[cenobamate]", "values": [{"measurement": "reduction in monthly seizure frequency", "setting": "[1]", "value": "up to 55%"}, {"measurement": "seizure-free rates", "setting": "[1]", "value": "up to 28%"}, {"measurement": "IC50", "setting": "IKr (hERG)", "value": 1.87, "unit": "mM"}, {"measurement": "IC50", "setting": "neuronal Na+ channels", "value": 59, "unit": "µM"}, {"measurement": "inhibition at 10 µM", "setting": "hNav1.5; HEK-293T, cenobamate 10 µM, read-out: % INa inhibition (peak), mean (Table S2)", "value": 8.6, "unit": "%"}, {"measurement": "inhibition at 10 µM", "setting": "hNav1.5; HEK-293T, cenobamate 10 µM, read-out: % INa inhibition (peak), single experiments (Table S2)", "value": 8.58, "unit": "%"}, {"measurement": "inhibition at 40 µM", "setting": "hNav1.5; HEK-293T, cenobamate 40 µM, read-out: % INa inhibition (peak), mean (Table S2)", "value": 37.7, "unit": "%"}, {"measurement": "inhibition at 100 µM", "setting": "hNav1.5; HEK-293T, cenobamate 100 µM, read-out: % INa inhibition (peak), mean (Table S2)", "value": 49, "unit": "%"}, {"measurement": "inhibition at 100 µM", "setting": "hNav1.5; HEK-293T, cenobamate 100 µM, read-out: % INa inhibition (peak), single experiments (Table S2)", "value": 52.7, "unit": "%"}, {"measurement": "inhibition at 200 µM", "setting": "hNav1.5; HEK-293T, cenobamate 200 µM, read-out: % INa inhibition (peak), mean (Table S2)", "value": 69.9, "unit": "%"}, {"measurement": "inhibition at 200 µM", "setting": "hNav1.5; HEK-293T, cenobamate 200 µM, standard protocol, step at -10 mV, initial set, mean (SD), n = 6, read-out: average inhibition of peak INa", "value": 69.5, "unit": "%"}, {"measurement": "inhibition at 1000 µM", "setting": "hNav1.5; HEK-293T, cenobamate 1000 µM, read-out: % INa inhibition (peak), mean (Table S2)", "value": 89.3, "unit": "%"}, {"measurement": "inhibition at 1000 µM", "setting": "hNav1.5; HEK-293T, cenobamate 1000 µM, read-out: % INa inhibition (peak), single experiments (Table S2)", "value": 89.6, "unit": "%"}, {"measurement": "IC50", "setting": "hNav1.5; INaIC50 (model script), value entered in C++ script", "value": 87.6, "unit": "µM"}, {"measurement": "IC50", "setting": "hNav1.5; apparent IC50 for peak INa inhibition, Hill coefficient nH = 1, room temperature", "value": "87.6 µM and < 100 µM"}, {"measurement": "% INa inhibition (peak), single experiments (Table S2)", "setting": "hNav1.5; cenobamate 10 µM", "value": "9.79% and 10.02% and 5.97%"}, {"measurement": "% INa inhibition (peak), single experiments (Table S2)", "setting": "hNav1.5; cenobamate 40 µM", "value": "36.42% and 24.23% and 44.79% and 44.54% and 38.53%"}, {"measurement": "% INa inhibition (peak), single experiments (Table S2)", "setting": "hNav1.5; cenobamate 100 µM", "value": "51.80% and 49.36% and 42.07%"}, {"measurement": "% INa inhibition (peak), single experiments (Table S2)", "setting": "hNav1.5; cenobamate 200 µM", "value": "64.55% and 87.37% and 54.65% and 52.32% and 72.86%"}, {"measurement": "voltage shifts of voltage dependence of activation and steady-state inactivation", "setting": "hNav1.5; cenobamate 200 µM, both activation and inactivation", "value": "> 10", "unit": "mV"}, {"measurement": "voltage dependence of peak INa inhibition", "setting": "hNav1.5; cenobamate 200 µM, multiple depolarizing steps", "value": "virtually voltage-independent"}, {"measurement": "average inhibition of peak INa", "setting": "hNav1.5; cenobamate 200 µM, standard protocol, step at -10 mV, initial set, mean (SD), n = 6", "value": "69.53 ± 14.63", "unit": "%"}, {"measurement": "% INa inhibition, single experiments (Table S1)", "setting": "hNav1.5; cenobamate 200 µM, step at -10 mV", "value": "56.27% and 68.71% and 86.95% and 54.87% and 87.66% and 62.74%"}, {"measurement": "% INa inhibition (peak), single experiments (Table S2)", "setting": "hNav1.5; cenobamate 1000 µM", "value": "91.76% and 89.36% and 86.34%"}, {"measurement": "inhibition at 20 µM", "setting": "hKv11.1 (hERG), IKr; pH 7.4, cenobamate 20 µM, vs. 4.1% in control experiments, read-out: average peak IKr (hERG) inhibition", "value": "5.3 ± 1.8", "unit": "%"}, {"measurement": "inhibition at 200 µM", "setting": "hKv11.1 (hERG), IKr; read-out: % IKr inhibition, single experiments (Table S7)", "value": 8.01, "unit": "%"}, {"measurement": "inhibition at 200 µM", "setting": "hKv11.1 (hERG), IKr; read-out: average peak IKr inhibition corrected for control (10.97 − 4.1)", "value": 6.87, "unit": "%"}, {"measurement": "inhibition at 200 µM", "setting": "hKv11.1 (hERG), IKr; step at -50 mV, read-out: relative peak IKr inhibition, mean", "value": "11 ± 3.11", "unit": "%"}, {"measurement": "IC50", "setting": "hKv11.1 (hERG)", "value": "> 200", "unit": "µM"}, {"measurement": "% IKr inhibition, single experiments (Table S7)", "setting": "hKv11.1 (hERG); cenobamate 200 µM", "value": "14.26% and 12.93% and 7.32% and 12.35%"}, {"measurement": "protein binding", "setting": "[2]", "value": 43.2, "unit": "%"}, {"measurement": "inhibition at 20 µM", "setting": "[3]; HEK-293T, cenobamate 20 µM, read-out: % ICaL inhibition, mean (Table S5)", "value": 6.65, "unit": "%"}, {"measurement": "inhibition at 100 µM", "setting": "[3]; HEK-293T, cenobamate 100 µM, read-out: % ICaL inhibition, mean (Table S5)", "value": 11.3, "unit": "%"}, {"measurement": "inhibition at 100 µM", "setting": "[3]; HEK-293T, cenobamate 100 µM, read-out: % ICaL inhibition, single experiments (Table S5)", "value": 11.2, "unit": "%"}, {"measurement": "inhibition at 200 µM", "setting": "[3]; HEK-293T, cenobamate 200 µM, read-out: % ICaL inhibition, mean (Table S5)", "value": 34.5, "unit": "%"}, {"measurement": "inhibition at 200 µM", "setting": "[3]; HEK-293T, cenobamate 200 µM, step at 0 mV, initial set, mean (SD), n = 4, read-out: average inhibition of peak ICaL amplitude", "value": "39.3 ± 13.8", "unit": "%"}, {"measurement": "inhibition at 400 µM", "setting": "[3]; HEK-293T, cenobamate 400 µM, read-out: % ICaL inhibition, mean (Table S5)", "value": 42, "unit": "%"}, {"measurement": "inhibition at 400 µM", "setting": "[3]; HEK-293T, cenobamate 400 µM, read-out: % ICaL inhibition, single experiments (Table S5)", "value": 39, "unit": "%"}, {"measurement": "inhibition at 1000 µM", "setting": "[3]; HEK-293T, cenobamate 1000 µM, read-out: % ICaL inhibition, mean (Table S5)", "value": 65.3, "unit": "%"}, {"measurement": "IC50", "setting": "[3]; ICaLIC50 (model script), value entered in C++ script", "value": 510, "unit": "µM"}, {"measurement": "IC50", "setting": "[3]; apparent IC50 for hCav1.2 (ICaL) inhibition, unitary Hill coefficient", "value": 510, "unit": "µM"}, {"measurement": "% ICaL inhibition, single experiments (Table S5)", "setting": "[3]; cenobamate 100 µM", "value": "11.40% and 10.58% and 12.03%"}, {"measurement": "average inhibition of peak ICaL amplitude", "setting": "[3]; cenobamate 200 µM, step at 0 mV, initial set, mean (SD), n = 4", "value": "39.26 ± 13.78", "unit": "%"}, {"measurement": "% ICaL inhibition, single experiments (Table S5)", "setting": "[3]; cenobamate 400 µM", "value": "41.25% and 47.37% and 40.40%"}, {"measurement": "% ICaL inhibition, single experiments (Table S5)", "setting": "[3]; cenobamate 1000 µM", "value": "77.36% and 58.39% and 76.52% and 52.87% and 61.56%"}]}
